How the values were obtained:
[1] = test system: ADP-induced platelet aggregation; assay: ADP-induced platelet aggregation, whole blood impedance aggregometry; format: cell-based; conditions: human blood ex vivo; for Aggregation, ADP 10 μM, −compound A: n = 7-8
Experimental: Human Blood In Vitro—Compound A and Clopidogrel
Compound A (500 nM final concentration) was added to blood from healthy human volunteers receiving clopidogrel (Sanofi-Winthrop, 75 mg/day for 11 days). ADP-induced platelet aggregation (+/−compound A) was measured using whole blood impedance aggregometry.

[2] = test system: platelet P-selectin expression; assay: ADP-induced platelet P-selectin expression in human washed platelets; format: cell-based; conditions: ADP 10 μM, GR144053 10 μM, compound B 10 nM, Mean ± se (n = 3), Control 13.1 ± 3.3
Experimental: P-selectin expression on the platelet membrane surface plays an important role in platelet-leukocyte-conjugate formation and there is increasing evidence that such interactions play an important role in both acute thrombosis and in the inflammatory aetiology of progressive atheroscerosis. The effect of a P2T-receptor antagonist (compound B) on ADP (10 μM)-induced platelet P-selectin expression was investigated in human washed platelets. The effect of compound B (10 nM) was compared with that of the GPIIb/IIIa antagonist, GR144053 (10 μM, Foster et al (1993) Thromb Haemostas; 69(6):559, synthesized in AstraZeneca R & D, Charnwood). These concentrations are 4 (compound B)—and 600 (GR144053)—fold higher than the respective IC50 values for inhibition of ADP-induced platelet aggregation in this system.

## COC(=O)[C@H](c1ccccc1Cl)N1CCc2sccc2C1 [clopidogrel]
[1]; clopidogrel alone, 75 mg/day for 11 days
  Inhibition of the ADP response (in words): slowly developing, incomplete inhibition
[1]; oral clopidogrel 75 mg/day for 1 day, mean ± SD
  Aggregation, ADP 10 μM, −compound A: 13.8 ± 2.3 ohms
[1]; oral clopidogrel 75 mg/day for 2 days, mean ± SD
  Aggregation, ADP 10 μM, −compound A: 11.8 ± 3.4 ohms
[1]; oral clopidogrel 75 mg/day for 3 days, mean ± SD
  Aggregation, ADP 10 μM, −compound A: 10.2 ± 4.5 ohms
[1]; oral clopidogrel 75 mg/day for 3 days, n=1
  Aggregation, ADP 300 μM, −compound A: 13.9^(n=1) ohms
[1]; oral clopidogrel 75 mg/day for 11 days, mean ± SD
  Aggregation, ADP 10 μM, −compound A: 8.2 ± 4.4 ohms
[1]; oral clopidogrel 75 mg/day for 11 days, mean ± SD, n=3
  Aggregation, ADP 300 μM, −compound A: 11.4 ± 5.2^(n=3) ohms

## Cl.Cl.Cl.N=C(N)c1ccc(N2CCN(C3CCN(CC(=O)O)CC3)CC2)cc1 [GR144053]
[2]
  P-selectin expression (% positive cells): 17.7 ± 1.7 % positive cells

Reference: patent US20060270607A1, “Pharmaceutical combinations” (priority 1999, published 2006)
